Measured values: paper PMC9097471, “Development of Selective Phosphatidylinositol 5-Phosphate 4-Kinase γ Inhibitors with a Non-ATP-competitive, Allosteric Binding Mode” (Journal of Medicinal Chemistry, 2022)
Read-outs that look alike come from different tables or passages of the source.

Assays:
PI5P4Kγ-WT [1] = target: T1, PI5P4Kγ-WT (Homo sapiens, UniProt Q8TBX8); assay: KINOMEscan KD (Eurofins Discovery, DiscoverX); type: binding
T1 sequence (Q8TBX8 1-421): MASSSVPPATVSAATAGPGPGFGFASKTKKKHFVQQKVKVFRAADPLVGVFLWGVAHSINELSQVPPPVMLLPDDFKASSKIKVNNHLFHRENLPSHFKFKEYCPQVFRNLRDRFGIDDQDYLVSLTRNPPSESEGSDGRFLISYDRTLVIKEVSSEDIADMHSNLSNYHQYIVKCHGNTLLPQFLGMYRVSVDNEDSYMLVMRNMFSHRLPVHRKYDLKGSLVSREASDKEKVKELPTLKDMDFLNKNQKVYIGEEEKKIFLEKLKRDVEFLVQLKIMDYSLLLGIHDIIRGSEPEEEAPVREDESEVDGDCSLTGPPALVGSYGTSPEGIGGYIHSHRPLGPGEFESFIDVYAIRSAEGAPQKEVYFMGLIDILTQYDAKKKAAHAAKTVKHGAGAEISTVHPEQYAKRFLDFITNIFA
Experimental: (§1) a Data were generated at Eurofins Discovery using DiscoverX KINOMEscanTM technology. Streptavidin-coated magnetic beads were treated with biotinylated small molecule ligands for 30 minutes at room temperature to generate affinity resins for kinase assays. The liganded beads were blocked with excess biotin and washed with blocking buffer (SeaBlock (Pierce), 1% BSA, 0.05% Tween 20, 1 mM DTT) to remove unbound ligand and to reduce non-specific binding. Binding reactions were assembled by combining kinases, liganded affinity beads, and test compounds in 1x binding buffer (20% SeaBlock, 0.17x PBS, 0.05% Tween 20, 6 mM DTT). Test compounds were prepared as 111X stocks in 100% DMSO. Kds were determined using an 11-point 3-fold compound dilution series with three DMSO control points. All compounds for Kd measurements are distributed by acoustic transfer (non-contact dispensing) in 100% DMSO. The compounds were then diluted directly into the assays such that the final concentration of DMSO was 0.9%. All reactions performed in polypropylene 384-well plate. Each was a final volume of 0.02 ml. The assay plates were incubated at room temperature with shaking for […]
(§2) room temperature with shaking for 30 minutes. The kinase concentration in the eluates was measured by qPCR. […]

PI5P4Kβ = target: T2, PI5P4Kβ (Homo sapiens, UniProt P78356); assay: KINOMEscan KD (Eurofins Discovery, DiscoverX); type: binding
T2 sequence (P78356 1-416): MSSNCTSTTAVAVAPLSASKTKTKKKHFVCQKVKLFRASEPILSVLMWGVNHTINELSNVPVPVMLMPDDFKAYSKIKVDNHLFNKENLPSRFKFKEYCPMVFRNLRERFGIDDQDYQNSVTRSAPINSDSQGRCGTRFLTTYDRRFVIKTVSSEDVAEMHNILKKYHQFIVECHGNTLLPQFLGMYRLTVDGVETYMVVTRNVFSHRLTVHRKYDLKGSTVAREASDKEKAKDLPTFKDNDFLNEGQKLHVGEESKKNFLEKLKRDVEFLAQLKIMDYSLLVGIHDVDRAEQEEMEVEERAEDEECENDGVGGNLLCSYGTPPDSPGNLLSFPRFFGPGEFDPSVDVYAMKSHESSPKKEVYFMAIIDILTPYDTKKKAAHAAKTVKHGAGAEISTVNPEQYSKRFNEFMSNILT
Experimental: as §1, §2

PI5P4Kγ-WT [2] = target: T1, PI5P4Kγ-WT; assay: Thermal shift assay; conditions: read-out: ΔTm PI5P4Kγ WT, thermal shift, compound 63 μM
PI5P4Kα-WT = target: T3, PI5P4Kα-WT (Homo sapiens, UniProt P48426); assay: ADP-Glo inhibition assay; conditions: ADP-Glo
T3 sequence (P48426 1-406): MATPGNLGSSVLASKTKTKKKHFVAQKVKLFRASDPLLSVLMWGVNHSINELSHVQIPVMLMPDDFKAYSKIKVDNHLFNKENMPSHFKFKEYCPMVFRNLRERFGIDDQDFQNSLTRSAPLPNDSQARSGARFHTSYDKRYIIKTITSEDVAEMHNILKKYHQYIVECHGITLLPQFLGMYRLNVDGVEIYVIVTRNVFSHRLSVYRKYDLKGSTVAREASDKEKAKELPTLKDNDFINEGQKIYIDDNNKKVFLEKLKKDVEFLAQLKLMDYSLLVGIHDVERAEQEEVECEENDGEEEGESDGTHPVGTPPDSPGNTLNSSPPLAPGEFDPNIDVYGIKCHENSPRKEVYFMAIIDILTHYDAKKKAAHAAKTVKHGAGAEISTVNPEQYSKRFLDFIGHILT
Description: To enable direct comparisons, Promega’s ADP-Glo reporter assay was developed using a mutant form of the kinase. […] To mitigate concerns about being misled by the use of the PI5P4Kγ+ construct and the possible introduction of PI5P4Kα activity into the molecules, our screening cascade included the measurement of ADP-Glo activity at PI5P4Kα-WT (and PI5P4Kβ-WT to fully understand emerging selectivity profiles).

PI5P4Kγ+ = target: T4, PI5P4Kγ+ (Homo sapiens, UniProt Q8TBX8, D138G/D197E/E133P/E135D/E153T/E196G/G136S/G139A/N195G/S132L/S134N); assay: ADP-Glo inhibition assay; type: biochemical; conditions: for IC50: ADP-Glo; for PI5P4Kγ+ LE: ligand efficiency from PI5P4Kγ+ pIC50
T4 construct: GST (N, cleaved yes); made in house; host or cells: E. coli BL21(DE3), pGEX6P
T4 sequence (Q8TBX8 with tags, fused parts or gaps INS131LPN/S132D/E133S/S134Q/E135A/G136R/D138G/G139A/E153T/N195G/E196G/D197E): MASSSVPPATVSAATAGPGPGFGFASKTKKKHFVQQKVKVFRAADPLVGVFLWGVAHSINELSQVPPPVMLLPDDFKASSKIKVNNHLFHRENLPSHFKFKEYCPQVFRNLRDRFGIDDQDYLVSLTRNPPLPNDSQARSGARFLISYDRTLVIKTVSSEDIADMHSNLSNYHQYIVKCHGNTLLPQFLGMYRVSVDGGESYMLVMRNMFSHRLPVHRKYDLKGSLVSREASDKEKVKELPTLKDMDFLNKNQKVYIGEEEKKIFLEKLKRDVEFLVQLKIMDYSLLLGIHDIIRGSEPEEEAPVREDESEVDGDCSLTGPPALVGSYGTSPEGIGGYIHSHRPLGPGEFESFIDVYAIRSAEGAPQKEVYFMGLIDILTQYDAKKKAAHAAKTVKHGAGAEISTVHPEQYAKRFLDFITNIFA

PI5P4Kγ-WT [3] = target: T1, PI5P4Kγ-WT; assay: InCell Pulse cellular target engagement (thermal stabilisation) in HEK293 cells; type: cell-based
Experimental: The binding of compounds to PI5P4Kγ in intact cells was assessed using an InCell Pulse thermal stabilisation assay (DiscoverX). […] The plate was then incubated for 60 min in the dark prior to luminescence reading using a Pherastar FSX plate reader (BMG Labtech).
Statistical analysis was performed using nonparametric testing in Prism 8 (GraphPad). Activity pIC50 values and in vivo binding pEC50 values were estimated using a 4-parameter fit (Dotmatics).

| SMILES | Kd (PI5P4Kγ-WT [1]) [µM] | Kd (PI5P4Kβ) [µM] | ΔTm at 63 µM (PI5P4Kγ-WT [2]) [°C] | PI5P4Kα pIC50 (PI5P4Kα-WT) | IC50 (PI5P4Kα-WT; read-out: PI5P4Kα IC50, new data) [µM] | IC50 (PI5P4Kγ+; new data, read-out: PI5P4Kγ+ IC50) [µM] | PI5P4Kγ+ LE (PI5P4Kγ+) | IC50 (PI5P4Kγ-WT [3]; InCell Pulse, new data) [µM] | IC50 (PI5P4Kγ+; mutant PI5P4Kγ+ construct, read-out: PI5P4Kγ+ pIC50 (converted)) [µM] | cellular target engagement with PI5P4Kγ-WT (PI5P4Kγ-WT [3]; InCell Pulse) | Target engagement PI5P4Kγ WT pIC50 (PI5P4Kγ-WT [3]; InCell Pulse in intact cells) |
| --- | --- | --- | --- | --- | --- | --- | --- | --- | --- | --- | --- |
| FC(F)(F)c1ccccc1-c1nc(NCc2cccs2)c2ccccc2n1 [Compound 1, NIH-12848, reference compound] | 4 | > 30 | 4.7 | <4.3 | > 50 | 0.79 | 0.32 | 2.5 |  |  |  |
| CC(C)c1ccccc1-c1nc(NCc2ccccn2)c2c(ccn2C)n1 [Compound 40] | 0.068 | > 30 | 6.9 | <4.3 |  |  | 0.32 |  | 0.631 | submicromolar activity | 6.1 |
